Tests used:
[1] = tested on: Cryptococcus neoformans serotype D strain 24067; assay: Glyphosate inhibition of C. neoformans growth (turbidity, 96-well plates); assay type: cell-based; conditions: after 72 h of incubation, 30° C., Sab, visual turbidity
Protocol: Cryptococcus neoformans serotype D strain 24067 was obtained from the American Type Culture Collection (Rockville, Md.), and grown overnight at 30° C. with shaking in Sabouraud dextrose media (Sab) obtained from Difco Laboratories (Detroit, Mich.). Cells were collected and washed three times with phosphate-buffered saline (PBS: 0.137 M NaCl and 0.003 M sodium phosphate; pH 7.4). A suspension of 250 organisms per 1 ml of Sab was made. Glyphosate was obtained from the Sigma Chemical Co. (St. Louis, Mo.). […] Each concentration was tested in triplicate. The plates were incubated at 30° C., and growth was assayed visually for turbidity after 72 h.

[2] = tested on: melanization in C. neoformans; assay: Effect of sub-inhibitory glyphosate on melanization of C. neoformans cultures with L-dopa; assay type: cell-based, Cryptococcus neoformans; conditions: 1 mM L-dopa; for Melanization: control without glyphosate day 7
Protocol: Positive melanin controls were cultures containing L-dopa without glyphosate; negative controls were cultures lacking both L-dopa and glyphosate. All cultures were grown in duplicate. The cultures were examined visually for melanization. The growth rate of the cells in each culture was determined by counting, with a hemocytometer, the number of cells per ml at various times after the initiation of the culture.

[3] = tested on: autopolymerization of L-dopa to melanin; assay: Autopolymerization of L-dopa to melanin (spectrophotometry)
Protocol: In solution, L-dopa slowly autopolymerizes to form melanin [20]. […] The samples were left on the benchtop at room temperature. An Ultraspec 2000 spectrophotometer (Pharmacia Biotech, Cambridge, England) was used to assess absorption at 270λ after 3 days and 20 days. […] A freshly-prepared solution of the same concentrations was tested for comparison.

[4] = tested on: C. neoformans strain 24067; assay: Survival of BALB/c mice infected with C. neoformans; assay type: in vivo; conditions: for survival advantage: oral
Protocol: (§1) Cryptococcus neoformans cells were collected as described above. BALB/c mice (National Cancer Institute (NCI), Bethesda, Md.), 6-8 weeks old, were injected intravenously (i.v.) by the tail veins with 1×10^6 organisms. […] In experiment A, uninfected control mice were injected with glyphosate at the same time intervals. […] Forty-four days after infection, the A/J Cr mice were killed, and the lungs were isolated and homogenized in 5 ml of PBS. 100 μl of 1/100 and 1/1000 dilutions of the homogenates in PBS were then plated on Sab agar. Colony-forming units (CFUs) were determined after incubation of the plates at 30° C. for 48 h (1 colony=1 CFU). […] Control mice were injected with PBS instead of glyphosate.
Data analysis was performed using SPSS version 8. Student's T-test and Kaplan-Meier survival analysis were utilized.

C. neoformans = assay: Lung CFUs in A/J Cr mice infected with C. neoformans; assay type: in vivo; conditions: 1 mg glyphosate i.p. at 24, 48, 72 h, 44 days after infection, n=13, controls 9.63±0.21, p=0.004
Protocol: as §1

O=C(O)CNCP(=O)(O)O [glyphosate, N-phosphonomethylglycine]
concentrations of glyphosate at which growth inhibition was observed [1]: > 250 µg/mL | concentrations of glyphosate at which no growth inhibition was observed [1]: < 250 µg/mL | Melanization ([2]; 62.5 μg/ml glyphosate): 10 days | Melanization ([2]; 125 μg/ml glyphosate): 13 days | Melanization ([2]; 250 μg/ml glyphosate): 15 days | melanization state of culture ([2]; grown 10 days in minimal media, 62.5 μg/ml glyphosate): heavily melanized | absorption value ([3]; 0.12 μg/ml glyphosate, 1 mM L-dopa, day 3, 270λ, control without compound 0.425): 0.359 | concentration of glyphosate at which an absorption signal could be detected ([3]; day 3, 1 mM L-dopa, room temperature, 270λ): 39 µg/mL | concentrations of glyphosate that continued to inhibit melanin formation ([3]; day 20, 1 mM L-dopa, room temperature): ≥ 31.3 µg/mL | Mean survival ([4]; 0.75 mg/day glyphosate i.p. protocol, control 20.4±1.31 days, p=0.049): 26.8 ± 3.55 days | Mean survival time and standard deviation by Kaplan-Meier analysis ([4]; 1.5 mg/day glyphosate i.p. for three days, control 15.9±1.57 days, p=0.001): 25.7 ± 2.36 days | survival advantage ([4]; ad lib water containing 2 mg/ml glyphosate): no survival advantage | survival advantage ([4]; ad lib water containing 10 mg/ml glyphosate): no survival advantage | Log10 CFUs from lung homogenates (C. neoformans): 8.62±1.12

Reference: patent publication US6509325B1, “Method for inhibiting melanogenesis and uses thereof” (priority 2000, dated 2003)
